Reference: ChEMBL document CHEMBL5608229, “Innovative Multistage ML-QSAR Models for Malaria: From Data to Discovery” (ACS Med Chem Lett, 2024)

Columns and labels:
Plasmodium falciparum [1] = assay: Antiplasmodial activity against […] Plasmodium falciparum NF54 assessed as parasite growth inhibition at 5 uM incubated for 48 hrs by luciferase based analysis relative to control; format: functional
Plasmodium berghei [2] = assay: Antiplasmodial activity against […] Plasmodium berghei infected in mouse model assessed as parasite growth inhibition at 10 uM pre-infected mouse with parasite followed by blood collection from mouse and subsequent addition of compound in blood measured after 24 hrs by nano-luciferase based analysis relative to control; format: functional; conditions: read-out: INH
Plasmodium berghei [3] = assay: Antiplasmodial activity against asexual liver schizonts-stage Plasmodium berghei infected in human Huh-7 cells assessed as parasite growth inhibition at 10 uM pretreated parasite with compound for 1 hr followed by parasitic infection in cells for 46 hrs by bioluminescence assay relative to control; format: functional
Plasmodium falciparum [4] = assay: Antiplasmodial activity against asexual blood-stage CQ-sensitive Plasmodium falciparum 3D7 infected in RBC assessed as parasite growth reduction incubated for 72 hrs by SybrGreen dye based analysis; format: functional, organism-based; conditions: 3D7, Erythrocyte
[5] = Cytotoxicity against African green monkey COS-7 cells incubated for 72 hrs by MTT assay; format: toxicity, cell-based; conditions: chlorocebus aethiops
[6] = Cytotoxicity against human HepG2 cells incubated for 72 hrs by MTT assay; format: toxicity, cell-based
[7] = Selectivity index, ratio of CC50 for African green monkey COS-7 cells to EC50 for asexual blood-stage CQ-sensitive Plasmodium falciparum 3D7 infected in RBC; format: toxicity; conditions: read-out: Ratio CC50/EC50
[8] = Selectivity index, ratio of CC50 for human HepG2 cells to EC50 for asexual blood-stage chloroquine-sensitive Plasmodium falciparum 3D7 infected in RBC
Plasmodium falciparum [9] = assay: Antiplasmodial activity against asexual blood-stage CQ-sensitive Plasmodium falciparum 3D7 infected in RBC assessed as parasite growth inhibition at 5 uM incubated for 72 hrs by SybrGreen dye based analysis relative to control; format: functional; conditions: 3D7, Erythrocyte
Plasmodium falciparum [10] = assay: Antiplasmodial activity against asexual blood-stage multidrug-resistant Plasmodium falciparum Dd2 infected in RBC assessed as parasite growth inhibition at 5 uM incubated for 72 hrs by SybrGreen dye based analysis relative to control; format: functional; conditions: Dd2, Erythrocyte
Plasmodium falciparum [11] = assay: Antiplasmodial activity against asexual blood-stage multidrug-resistant Plasmodium falciparum Dd2 infected in RBC assessed as parasite growth reduction incubated for 72 hrs by SybrGreen dye based analysis; format: functional, organism-based; conditions: Dd2, Erythrocyte

| SMILES | inhibition at 5 µM (Plasmodium falciparum [1]) [%] | percent ookinete growth inhibition (ex vivo) at 10 µM (Plasmodium berghei [2]) [%] | inhibition at 10 µM (Plasmodium berghei [3]) [%] | EC50 (Plasmodium falciparum [4]) [µM] | CC50 at 72 h [5] [µM] | CC50 at 72 h [6] [µM] | selectivity ratio [7] | selectivity ratio [8] | inhibition at 5 µM (Plasmodium falciparum [9]) [%] | inhibition at 5 µM (Plasmodium falciparum [10]) [%] | EC50 (Plasmodium falciparum [11]) [µM] |
| --- | --- | --- | --- | --- | --- | --- | --- | --- | --- | --- | --- |
| c1ccc(C23CN4CCN(CC(C4)C2NCc2nc4ccccc4[nH]2)C3)cc1 (configuration not stated) | 20 | 56 | 0 | > 10 | > 100 | > 100 | – | – | – | – | – |
| CCc1ccc(C2CC(=O)C3=C(C2)NC(C)=C(C(=O)OCCc2ccccc2)C3c2ccncc2)cc1 (configuration not stated) | 14 | 11 | 92.2 | 13.5 | 125 | 54.4 | 9 | 4 | – | – | – |
| C=CCc1cc(CN2CCC3(CC2)CN(C)CCN3C)ccc1O | 51 | 5.43 | 0 | 1.49 | > 100 | > 100 | > 67 | > 67 | > 50 | > 50 | 2.59 |
| c1ccc2c(CCNC3CC4CCC3C4)c[nH]c2c1 (configuration not stated) | 11.5 | – | 0 | > 10 | > 100 | > 100 | – | – | – | – | – |
| c1ccc2c(CCNC34CC5CC(CC(C5)C3)C4)c[nH]c2c1 | 12 | – | 0 | 11.8 | 77.3 | 53.1 | 7 | 4.5 | – | – | – |
| CCN(CC)CCCC(C)Nc1ccnc2cc(Cl)ccc12 (configuration not stated) [CHLOROQUINE] | – | – | – | 0.008 | – | – | – | – | – | – | 0.055 |
| Oc1c(CN2CCCCC2)cc(CN2CCCCC2)nc1-c1ccccc1 | 51 | 0 | 0 | 1.55 | > 100 | > 100 | > 64 | > 64 | > 50 | > 50 | 1.65 |
| CN(C)CCCN(CCCN(C)C)Cc1cccc2ccccc12 | 33 | 3.26 | 0 | 5.46 | > 100 | > 100 | > 18 | > 18 | > 50 | > 50 | 2.64 |
| COc1cc2nc(NCCc3nc(=O)c4c(C)c(C)sc4[nH]3)nc(N)c2cc1OC | 94 | 65 | 90.3 | 1.38 | 12.3 | 13.6 | 9 | 9.9 | ≥ 50 | ≥ 50 | 3.67 |
| c1ccc(C23CN4CCN(CC(C4)C2NCc2ccc4c(c2)OCCO4)C3)cc1 (configuration not stated) | 6 | 0 | 0 | > 10 | > 100 | > 100 | – | – | – | – | – |
| COCCCNCCCCOc1ccc2ccccc2c1Br | 51.3 | 66.1 | 49.4 | 3.04 | 11 | 10.4 | 2.7 | 3.4 | ≥ 50 | ≥ 50 | 1.12 |
| c1ccc(CCN2CCC(NC34CC5CC(CC(C5)C3)C4)CC2)cc1 | 86 | 16 | 0 | 1.78 | 48.3 | 38.1 | 27 | 21 | > 90 | > 90 | 0.43 |
| CCc1nc(N)nc(N)c1-c1ccc(Cl)cc1 [PYRIMETHAMINE] | – | – | – | 0.039 | – | – | – | – | – | – | 6.01 |
| COc1cc2nnc(NCC3(N(C)C)CCCCC3)nc2cc1OC | 94 | 65.3 | 0 | 0.65 | 51 | 93.1 | 78 | 142 | > 50 | > 50 | 2.65 |
| C[C@H]1[C@H](OC(=O)CCC(=O)O)O[C@@H]2O[C@@]3(C)CC[C@H]4[C@H](C)CC[C@@H]1[C@@]24OO3 [ARTESUNATE] | – | – | – | 0.002 | – | – | – | – | – | – | 0.002 |
| Clc1ccc(-c2nc(Nc3ccc(I)cc3)c3ccccc3n2)cc1 | 6 | 44.7 | – | > 10 | 51.5 | 34.8 | – | – | – | – | – |
| Cc1ccc(Nc2nc(-c3ccccc3Cl)nc3ccccc23)cc1 | 1 | 45.6 | – | > 10 | 42.8 | 33.2 | – | – | – | – | – |
| COc1ccc(CN2CCCC(CO)(Cc3ccccc3)C2)c(C)c1C (configuration not stated) | 13.5 | 42.7 | 73.9 | > 10 | 50.4 | 44.1 | – | – | – | – | – |
| CCCOc1c(Br)cc(C2C3=C(CCCC3=O)NC3=C2C(=O)CCC3)cc1OC | 9.5 | 56.8 | 6.96 | > 10 | 56.4 | 30.5 | – | – | – | – | – |
